Source: the NIST ThermoML archive (doi:10.1016/j.jct.2016.09.022)

Key:
[1] = Liquid; for speed of sound: Frequency=1.5 MHz, Single path-length method; for mass density: 298.15 K, 101.33 kPa, Vibrating tube method
[2] = refractive index (Na D-line) (dimensionless); details: 298.15 K; 101.33 kPa; Liquid; Standard Abbe refractometry

CCCCCC [hexane]
speed of sound [m/s], [1]
Details | 283.15 K | 293.15 K | 303.15 K | 313.15 K | 323.15 K | 333.15 K | 343.15 K
100 kPa | 1147.3 | 1102.8 | 1056.2 | 1011.6 | 966.77 | 923.14 | –
105 kPa | – | – | – | – | – | – | 877.65
5100 kPa | 1183.8 | 1141.9 | 1097.9 | 1055.9 | 1013.6 | 972.45 | 931.79
10100 kPa | 1218.6 | 1177.2 | 1135.8 | 1096.4 | 1056.7 | 1017.2 | 977.66
20100 kPa | 1283.2 | 1243.4 | 1204.4 | 1167.8 | 1131.8 | 1096.3 | 1060.6
30100 kPa | 1339.6 | 1302.4 | 1266.5 | 1231.8 | 1197.6 | 1164 | 1131.3
40100 kPa | 1391.9 | 1356 | 1321.9 | 1289.3 | 1256.9 | 1225.4 | 1194.6
50100 kPa | 1440.2 | 1405.9 | 1373.7 | 1341.4 | 1311 | 1280.6 | 1252.1
60100 kPa | 1484.8 | 1452.3 | 1421.1 | 1390.3 | 1361.3 | 1331.7 | 1304.4
70100 kPa | 1526.9 | 1495.6 | 1464.4 | 1435.6 | 1408.2 | 1380.5 | 1354.1
80100 kPa | 1566.5 | 1536.7 | 1508.3 | 1478.3 | 1451.5 | 1425.6 | 1400.1
90100 kPa | 1604.6 | 1575.4 | 1548 | 1519.6 | 1493 | 1467.5 | 1442.2
95100 kPa | 1622.6 | 1594.1 | 1567.1 | 1539.5 | 1512.6 | 1487.5 | 1463.4

Details | mass density [kg/m3] | refractive index
[1] | 654.9 | –
[2] | – | 1.3723

Cc1ccccc1 [toluene]
speed of sound [m/s], [1]
Details | 283.15 K | 293.15 K | 303.15 K | 313.15 K | 323.15 K | 333.15 K | 343.15 K
100 kPa | 1369.5 | 1327.9 | 1284.1 | 1241.9 | 1200.2 | 1156.6 | 1118
5100 kPa | 1395.4 | 1352.2 | 1309.8 | 1269 | 1229.2 | 1187.4 | 1149.1
10100 kPa | 1418.1 | 1376 | 1334.3 | 1294.5 | 1256.4 | 1215.9 | 1178.9
20100 kPa | 1460.8 | 1420.5 | 1380.9 | 1341 | 1306.4 | 1268.1 | 1234.3
30100 kPa | 1500.8 | 1462 | 1424 | 1387 | 1352.7 | 1315.7 | 1283.9
40100 kPa | 1538.7 | 1500.9 | 1464.7 | 1429.5 | 1396.3 | 1360.3 | 1329.5
50100 kPa | 1574.4 | 1537.9 | 1503.3 | 1468.9 | 1436.9 | 1402.7 | 1371.4
60100 kPa | 1608.1 | 1572.4 | 1539.6 | 1506.4 | 1474.9 | 1441.4 | 1413.5
70100 kPa | 1640.3 | 1605.2 | 1572.1 | 1542.7 | 1511 | 1478.2 | 1451.5
80100 kPa | 1670.9 | 1637 | 1605.2 | 1576.1 | 1545.3 | 1513.1 | 1487.6
90100 kPa | 1700.3 | 1667.1 | 1638.2 | 1607.4 | 1576.7 | 1546.5 | 1522.1
95100 kPa | 1714.5 | 1682 | 1653.5 | 1621.2 | 1591.2 | 1563 | 1538.7

Details | mass density [kg/m3] | refractive index
[1] | 862.2 | –
[2] | – | 1.494

O [water]
speed of sound [m/s], [1]
Details | 283.15 K | 293.15 K | 303.15 K | 313.15 K | 323.15 K | 333.15 K | 343.15 K
100 kPa | 1447.3 | – | – | 1528.9 | – | 1551 | 1554.8
5100 kPa | 1455.9 | 1490.5 | 1517.5 | 1537.6 | 1551.5 | 1560.1 | 1565
10100 kPa | 1463.8 | 1498.9 | 1525.9 | 1546.1 | 1560.2 | 1569.2 | 1574.4
20100 kPa | 1479.9 | 1515.3 | – | 1563.2 | 1577.7 | 1587.1 | 1592.8
30100 kPa | 1496.2 | 1531.9 | 1559.5 | 1580.3 | 1595 | 1604.8 | 1610.8
40100 kPa | 1513.4 | 1548.6 | 1576.3 | 1597.1 | 1612.2 | 1622.2 | 1628.6
50100 kPa | – | 1565.3 | 1593.1 | 1613.8 | 1629 | 1639.3 | 1646.1
60100 kPa | 1548 | 1582.2 | 1609.8 | 1630.4 | 1645.7 | 1656.3 | 1663.9
70100 kPa | 1565.4 | 1599.1 | 1626.3 | 1646.9 | 1662.3 | 1673.1 | 1681
80100 kPa | 1582.7 | 1615.8 | 1642.6 | 1663.3 | 1678.3 | 1689.6 | 1697.4
90100 kPa | 1600.1 | 1632.4 | 1659 | 1679.4 | 1694.9 | 1705.9 | 1714.2
95100 kPa | 1608.7 | 1640.7 | 1667.3 | 1687.5 | 1702.9 | 1714 | 1723

Details | refractive index
[2] | 1.3326
